Like-named read-outs stand apart in the source and are kept apart here.
What was measured:
[1] = system: necrosis; assay: Necrosis inhibitory activity (cell necrosis / cell viability assay); assay type: cell-based; conditions: read-out: EC50
Excerpt: Necrosis Inhibitory Activity
Representative IC50 of hRIP1 Kinase Assay Correlated with Our IC50 of Cell Necrosis Assay: […]

[2] = system: ferroptosis; assay: Ferroptosis inhibitor activity; assay type: cell-based; conditions: 1 uM threshold activity extrapolated
Excerpt: Ferroptosis Inhibitor Activity 1 Um Threshold Activity Extrapolated

[3] = Prodrug enhanced metabolic stability: liver microsome (L); assay type: in vitro ADME; parameters: key: +, Extrapolated
Excerpt: (§1) Prodrug Enhanced Metabolic Stability: Liver Microsome (L), Hepatocyte (H) and PK

[4] = Prodrug enhanced metabolic stability: PK; assay type: in vivo; parameters: key: +, Extrapolated
Excerpt: as §1

[5] = Prodrug enhanced metabolic stability: hepatocyte (H); assay type: in vitro ADME; parameters: key: +, Extrapolated
Excerpt: as §1

[6] = Necrosis Inhibitory Activity, given as range

| Structure (SMILES) | EC50 [1, 6] [nM] | EC50 [2] [nM] | L [3] | PK [4] | EC50 ([1]; Active Pro-drugs) [nM] | H [5] |
| --- | --- | --- | --- | --- | --- | --- |
| CCC(C)(C)C(=O)N(O)Cc1ccccc1F [Compound 1, N-(2-fluorobenzyl)-N-hydroxy-2,2-dimethylbutanamide] | 1 to 1000 | 1000 to 10000 | – | – | – | – |
| CCC(C)(C)C(=O)N(O)Cc1cccc(F)c1 [Compound 2, N-(3-fluorobenzyl)-N-hydroxy-2,2-dimethylbutanamide] | 1 to 1000 | 1000 to 10000 | – | – | – | – |
| CCC(C)(C)C(=O)N(O)Cc1ccccc1Cl [Compound 3, N-(2-chlorobenzyl)-N-hydroxy-2,2-dimethylbutanamide] | 1 to 1000 | 1000 to 10000 | – | – | – | – |
| CCC(C)(C)C(=O)N(O)Cc1cccc(Cl)c1 [Compound 4, N-(3-chlorobenzyl)-N-hydroxy-2,2-dimethylbutanamide] | 1 to 1000 | 1000 to 10000 | – | – | – | – |
| CCC(C)(C)C(=O)N(O)Cc1cccc(Br)c1 [Compound 5, N-(3-bromobenzyl)-N-hydroxy-2,2-dimethylbutanamide] | 1 to 1000 | 1000 to 10000 | – | – | – | – |
| CC(C)(C(=O)N(O)Cc1ccccc1)C(F)(F)F [Compound 6, N-benzyl-3,3,3-trifluoro-N-hydroxy-2,2-dimethylpropanamide] | 1 to 1000 | 1000 to 10000 | – | – | – | – |
| CC(C)(C)C(=O)N(O)Cc1ccccc1 [Compound 7, N-benzyl-N-hydroxypivalamide] | 1 to 1000 | 1000 to 10000 | – | – | – | – |
| CCC(C)(C)C(=O)N(O)Cc1ccccn1 [Compound 8, N-hydroxy-2,2-dimethyl-N-(pyridin-2-ylmethyl)butanamide] | 1000 to 10000 | 1000 to 10000 | – | – | – | – |
| CCC(C)(C)C(=O)N(O)Cc1cccc(F)c1F [Compound 9, N-(2,3-difluorobenzyl)-N-hydroxy-2,2-dimethylbutanamide] | 1 to 1000 | 1000 to 10000 | – | – | – | – |
| CCC(C)(C)C(=O)N(O)Cc1c(F)cc(F)cc1F [Compound 10, N-hydroxy-2,2-dimethyl-N-(2,4,6-trifluorobenzyl)butanamide] | 1000 to 10000 | 1000 to 10000 | – | – | – | – |
| CCC(C)(C)C(=O)N(O)Cc1c(F)c(F)c(F)c(F)c1F [Compound 11, N-hydroxy-2,2-dimethyl-N-((perfluorophenyl)methyl)butanamide] | 1000 to 10000 | 1000 to 10000 | – | – | – | – |
| CCC(C)(C)C(=O)N(O)Cc1cc(F)cc(C#N)c1 [Compound 12, N-(3-cyano-5-fluorobenzyl)-N-hydroxy-2,2-dimethylbutanamide] | 1 to 1000 | 1000 to 10000 | – | – | – | – |
| CCC(C)(C)C(=O)N(O)Cc1cc(F)ccc1F [Compound 14, N-(2,5-difluorobenzyl)-N-hydroxy-2,2-dimethylbutanamide] | 1 to 1000 | 1000 to 10000 | – | – | – | – |
| CCC(C)(C)C(=O)N(O)Cc1cc(F)cc(Cl)c1 [Compound 17, N-(3-chloro-5-fluorobenzyl)-N-hydroxy-2,2-dimethylbutanamide] | 1 to 1000 | 1000 to 10000 | – | – | – | – |
| CCC(C)(C)C(=O)N(O)Cc1ccc(Br)cc1 [Compound 18, N-(4-bromobenzyl)-N-hydroxy-2,2-dimethylbutanamide] | 1 to 1000 | 1000 to 10000 | – | – | – | – |
| CCC(C)(C)C(=O)N(O)Cc1cc(C)c(C)s1 [Compound 21, N-((4,5-dimethylthiophen-2-yl)methyl)-N-hydroxy-2,2-dimethylbutanamide] | 1 to 1000 | 1000 to 10000 | – | – | – | – |
| CCC(C)(C)C(=O)N(O)Cc1sccc1C [Compound 22, N-hydroxy-2,2-dimethyl-N-((3-methylthiophen-2-yl)methyl)butanamide] | 1000 to 10000 | 1000 to 10000 | – | – | – | – |
| CCC(C)(C)C(=O)N(O)CC1=CCCCC1 [Compound 25, N-(cyclohex-1-en-1-ylmethyl)-N-hydroxy-2,2-dimethylbutanamide] | 1 to 1000 | 1000 to 10000 | – | – | – | – |
| [2H]C([2H])C([2H])([2H])C(C)(C)C(=O)N(O)Cc1ccc(F)cc1 [Compound 29, N-(4-fluorobenzyl)-N-hydroxy-2,2-dimethylbutanamide-3,3,4,4-d4] | 1 to 1000 | 1000 to 10000 | – | – | – | – |
| [2H]c1c([2H])c([2H])c(C([2H])([2H])N(O)C(=O)C(C)(C)CC)c([2H])c1[2H] [Compound 30, N-hydroxy-2,2-dimethyl-N-((phenyl-d5)methyl-d2)butanamide] | 1 to 1000 | 1000 to 10000 | – | – | – | – |
| [2H]CC([2H])C(C)(C)C(=O)N(O)C([2H])([2H])c1c([2H])c([2H])c([2H])c([2H])c1[2H] (centres unmarked) [Compound 31, N-hydroxy-2,2-dimethyl-N-((phenyl-d5)methyl-d2)butanamide-3,4-d2] | 1 to 1000 | 1000 to 10000 | – | – | – | – |
| CC1(C(C)(C)C(=O)N(O)Cc2ccccc2)CC1 [Compound 32, N-benzyl-N-hydroxy-2-methyl-2-(1-methylcyclopropyl) propanamide] | 1 to 1000 | 1000 to 10000 | – | – | – | – |

| Structure (SMILES) | EC50 [1, 6] [nM] | EC50 [2] [nM] | L [3] | PK [4] | EC50 ([1]; Active Pro-drugs) [nM] | H [5] |
| --- | --- | --- | --- | --- | --- | --- |
| O=C(C1CCCC1)N(O)Cc1ccccc1 [Compound 33, N-benzyl-N-hydroxycydopentanecarboxamide] | 1000 to 10000 | 1000 to 10000 | – | – | – | – |
| O=C(N(O)Cc1ccccc1)C1(C(F)(F)F)CCCC1 [Compound 34, N-benzyl-N-hydroxy-1-(trifluoromethyl)cyclopentane-1-carboxamide] | 1 to 1000 | 1000 to 10000 | – | – | – | – |
| CC1(C(=O)N(O)Cc2ccccc2)CCCCC1 [Compound 36, N-benzyl-N-hydroxy-1-methylcyclohexane-1-carboxamide] | 1 to 1000 | 1000 to 10000 | – | – | – | – |
| O=C(C1CCCCC1)N(O)Cc1ccccc1 [Compound 37, N-benzyl-N-hydroxycyclohexanecarboxamide] | 1000 to 10000 | 1000 to 10000 | – | – | – | – |
| CCC1(C(=O)N(O)Cc2ccc(F)cc2)CC1 [Compound 39, 1-ethyl-N-(4-fluorobenzyl)-N-hydroxycyclopropane-1-carboxamide] | 1000 to 100000 | 1000 to 10000 | – | – | – | – |
| CCC1(C(=O)N(O)Cc2ccc(Cl)cc2)CC1 [Compound 40, N-(4-chlorobenzyl)-1-ethyl-N-hydroxycyclopropane-1-carboxamide] | 1000 to 10000 | 1000 to 10000 | – | – | – | – |
| CCC1(C(=O)N(O)Cc2cc(F)cc(F)c2)CC1 [Compound 41, N-(3,5-difluorobenzyl)-1-ethyl-N-hydroxycyclopropane-1-carboxamide] | 1000 to 10000 | 1000 to 10000 | – | – | – | – |
| CC(C)(C(=O)N(O)Cc1ccc(Br)cc1)C(F)(F)F [Compound 42, N-(4-bromobenzyl)-3,3,3-trifluoro-N-hydroxy-2,2-dimethylpropanamide] | 1 to 1000 | 1000 to 10000 | – | – | – | – |
| CC(C)(C(=O)N(O)Cc1ccc(F)cc1)C(F)(F)F [Compound 43, 3,3,3-trifluoro-N-(4-fluorobenzyl)-N-hydroxy-2,2-dimethylpropanamide] | 1 to 1000 | 1000 to 10000 | – | – | – | – |
| CC(C)(C(=O)N(O)Cc1ccc(Cl)cc1)C(F)(F)F [Compound 44, N-(4-chlorobenzyl)-3,3,3-trifluoro-N-hydroxy-2,2-dimethylpropanamide] | 1 to 1000 | 1000 to 10000 | – | – | – | – |
| CC(C)(C(=O)N(O)Cc1cc(F)cc(F)c1)C(F)(F)F [Compound 45, N-(3,5-difluorobenzyl)-3,3,3-trifluoro-N-hydroxy-2,2-dimethylpropanamide] | 1 to 1000 | 1000 to 10000 | – | – | – | – |
| CC(C)(C(=O)N(O)Cc1cc(F)c(F)c(F)c1)C(F)(F)F [Compound 46, 3,3,3-trifluoro-N-hydroxy-2,2-dimethyl-N-(3,4,5-trifluorobenzyl)propenamide] | 1000 to 10000 | 1000 to 10000 | – | – | – | – |
| Cc1cc(CN(O)C(=O)C(C)(C)C(F)(F)F)sc1C [Compound 47, N-((4,5-dimethylthiophen-2-yl)methyl)-3,3,3-trifluoro-N-hydroxy-2,2-dimethylpropanamide] | 1 to 1000 | 1000 to 10000 | – | – | – | – |
| CC(C)(C(=O)N(O)Cc1cccs1)C(F)(F)F [Compound 49, 3,3,3-trifluoro-N-hydroxy-2,2-dimethyl-N-(thiophen-2-ylmethyl)propanamide] | 1 to 1000 | 1000 to 10000 | – | – | – | – |
| CCOC(=O)ON(Cc1ccccc1)C(=O)C(C)(C)CC [Compound 50, N-benzyl-N-((ethoxycarbonyl)oxy)-2,2-dimethylbutanamide] | – | – | + | + | 69.6 | + |
| CCC(C)(C)C(=O)N(Cc1ccccc1)OC(=O)c1ccccc1 [Compound 51, N-(benzoyloxy)-N-benzyl-2,2-dimethylbutanamide] | – | – | + | + | 284 | + |
| CCC(C)(C)C(=O)N(Cc1ccccc1)OC(=O)CC(=O)ON(Cc1ccccc1)C(=O)C(C)(C)CC [Compound 52, N,N′-(malonylbis(oxy))bis(N-benzyl-2,2-dimethylbutanamide)] | – | – | + | + | 42.2 | + |
| CCC(C)(C)C(=O)N(Cc1ccccc1)OC(=O)CCC(=O)ON(Cc1ccccc1)C(=O)C(C)(C)CC [Compound 53, N,N′-(succinylbis(oxy))bis(N-benzyl-2,2-dimethylbutanamide)] | – | – | + | + | 85.5 | + |
| CCC(C)(C)C(=O)N(Cc1ccccc1)OC(=O)c1cccc(C(=O)ON(Cc2ccccc2)C(=O)C(C)(C)CC)c1 [Compound 54, N,N′-(isophthaloylbis(oxy))bis(N-benzyl-2,2-dimethylbutanamide)] | – | – | + | + | 466 | + |
| CCC(C)(C)C(=O)N(Cc1ccccc1)OC(=O)OCCOCCOCCOC(=O)ON(Cc1ccccc1)C(=O)C(C)(C)CC [Compound 55, N,N′-(2,5,8,11-tetraoxadodecanedioylbis(oxy))bis(N-benzyl-2,2-dimethylbutanamide)] | – | – | + | + | 99.3 | + |
| O=C(C1CCN(c2ncc(F)cn2)CC1)N(O)Cc1ccc(F)cc1 [Compound 85, N-(4-fluorobenzyl)-1-(5-fluoropyrimidin-2-yl)-N-hydroxypiperidine-4-carboxamide] | 1000 to 10000 | 1000 to 10000 | – | – | – | – |

— patent US12129221B2, “Difluoro phenyl amide RIP1 inhibitor” (SIRONAX LTD, priority 2018, dated 2024)
